BindingDB's records for doi:10.1016/j.bmcl.2008.02.009 (Novartis Institutes For Biomedical Research, 2008)

Each compound was assayed against T1, Isoprenyl transferase (Streptococcus pneumoniae serotype 4 (strain ATCC BAA-334 / TIGR4), UniProt Q97SR4) (assay: Inhibition of Streptococcus pneumoniae UPPS).
T1 sequence (Q97SR4 whole entry): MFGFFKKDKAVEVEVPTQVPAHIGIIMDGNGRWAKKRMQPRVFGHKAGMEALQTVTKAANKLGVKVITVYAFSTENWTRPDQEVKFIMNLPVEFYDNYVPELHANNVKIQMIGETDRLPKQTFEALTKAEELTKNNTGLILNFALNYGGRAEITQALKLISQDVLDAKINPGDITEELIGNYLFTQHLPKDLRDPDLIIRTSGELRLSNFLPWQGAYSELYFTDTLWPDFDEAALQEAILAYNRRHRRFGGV
With O=C1CC(Cc2ccccc2)NC(=O)C1C(=O)Nc1ccc(N2CCCCC2)cc1 (stereo unspecified) the IC50 was 110 nM. Compound O=C1CC(Cc2ccccc2)NC(=O)C1C(=O)Nc1ccc(Oc2ccccc2)cc1 (stereo unspecified) has an IC50 of 110 nM. For O=C1CC(Cc2ccccc2)NC(=O)C1C(=O)Nc1ccc(Nc2ccccc2)cc1 (stereo unspecified), the IC50 was 1100 nM. O=C(Nc1ccc(-c2ccccc2)cc1)C1C(=O)OC(Cc2ccccc2)C1=O (stereo unspecified) was tested, and the IC50 was 1100 nM.

Each compound was assayed against T2, Farnesyl pyrophosphate synthase (Homo sapiens, UniProt P14324) (assay: Inhibition of human FPPS).
T2 sequence (P14324 whole entry): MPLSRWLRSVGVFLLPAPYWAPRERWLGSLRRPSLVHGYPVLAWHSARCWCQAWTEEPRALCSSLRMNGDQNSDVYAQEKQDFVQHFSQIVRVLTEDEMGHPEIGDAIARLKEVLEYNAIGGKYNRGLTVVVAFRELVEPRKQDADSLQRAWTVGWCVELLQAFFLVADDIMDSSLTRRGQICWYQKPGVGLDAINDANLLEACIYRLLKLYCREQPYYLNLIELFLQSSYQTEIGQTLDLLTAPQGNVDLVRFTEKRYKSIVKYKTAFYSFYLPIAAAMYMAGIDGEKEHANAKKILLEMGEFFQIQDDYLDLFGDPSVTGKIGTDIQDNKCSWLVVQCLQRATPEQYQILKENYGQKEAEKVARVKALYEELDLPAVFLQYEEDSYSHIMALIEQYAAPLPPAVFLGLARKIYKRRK
In the case of O=C1CC(Cc2ccccc2)NC(=O)C1C(=O)Nc1ccc(N2CCCCC2)cc1 (stereo unspecified), the IC50 is reported as greater than 50 µM. Work on O=C1CC(Cc2ccccc2)NC(=O)C1C(=O)Nc1ccc(Oc2ccccc2)cc1 (stereo unspecified) yielded an IC50 greater than 50 µM.
